Assay [1] has as its target WT KRAS (Homo sapiens, UniProt P01116). Briefly: KRAS WT Probe Displacement Assay (TR-FRET, GDP-loaded). In kind it is binding. Conditions: KRAS WT, read-out: KRAS^WT Probe Displacement Assay IC50. From the text:
(§1) The synthetic routes of probe 1 and 2, which have been disclosed in PCT/CN2022/070676, are hereby incorporated herein.
In general terms: In TR-FRET formats the signal depends on donor and acceptor labels being close together.

The target of assay [2] is KRAS G12D (Homo sapiens, UniProt P01116, G12D). Description: KRAS G12D Probe Displacement Assay (TR-FRET, GDP-loaded). Type of assay: binding. The note with it: KRAS G12D, read-out: KRAS^G12D Probe Displacement Assay IC50.
KRAS G12D, sequence (P01116 1-188 isoform P01116-2 G12D): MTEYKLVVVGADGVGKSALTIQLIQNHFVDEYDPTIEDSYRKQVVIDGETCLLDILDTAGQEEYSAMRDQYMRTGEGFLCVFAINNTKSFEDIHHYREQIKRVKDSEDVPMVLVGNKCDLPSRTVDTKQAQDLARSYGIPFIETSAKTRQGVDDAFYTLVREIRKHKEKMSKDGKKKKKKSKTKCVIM
Text: as §1

Where only a bound is given, the exact number is not on record here.

WT KRAS, sequence (P01116 1-188 isoform P01116-2): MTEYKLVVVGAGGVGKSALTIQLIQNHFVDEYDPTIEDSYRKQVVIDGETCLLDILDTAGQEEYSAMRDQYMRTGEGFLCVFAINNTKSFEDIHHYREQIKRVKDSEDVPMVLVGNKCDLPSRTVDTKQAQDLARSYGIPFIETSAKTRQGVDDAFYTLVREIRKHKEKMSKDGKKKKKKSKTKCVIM

One may read the IC50 as the concentration needed to halve the response being measured. As to `Cc1cc(N)cc(-c2nc3c4c(nc(OCC5(CN6CC7(C6)CC(F)(F)C7)CC5)nc4c2F)N2C[C@H]4CC[C@H](N4)[C@H]2CCO3)c1C(F)(F)F` [Example 176, 3-((6aR,7S,10R)-13-((1-((6,6-difluoro-2-azaspiro[3.3]heptan-2-yl)methyl)cyclopropyl)methoxy)-1-fluoro-5,6,6a,7,8,9,10,11-octahydro-4-oxa-3,11a,12,14,15-pentaaza[7,10]methanocyclohepta[4,5]cycloocta[1,2,3-de]naphthalen-2-yl)-5-methyl-4-(trifluoromethyl)aniline], the IC50 in assay [1] is 3 to 1000 nM; in assay [2], less than 0.3 nM.
For `Cc1cc(N)cc(-c2nc3c4c(nc(O[C@@H](C)[C@@H]5CCCN5C5COC5)nc4c2F)N2C[C@H]4CC[C@H](N4)[C@H]2CCO3)c1C(F)(F)F` [Example 227, 3-((6aR,7S,10R)-1-fluoro-13-((S)-1-((S)-1-(oxetan-3-yl)pyrrolidin-2-yl)ethoxy)-5,6,6a,7,8,9,10,11-octahydro-4-oxa-3,11a,12,14,15-pentaaza-7,10-methanocyclohepta[4,5]cycloocta[1,2,3-de]naphthalen-2-yl)-5-methyl-4-(trifluoromethyl)aniline], in that order: 3 to 1000 nM and less than 0.3 nM.
Turning to `Cc1cc(N)cc(-c2nc3c4c(nc(OCC5(CN6CCC[C@H]6C)CC5)nc4c2F)N2C[C@H]4CC[C@H](N4)[C@H]2CCO3)c1C(F)(F)F` [Example 122, 3-((6aR,7S,10R)-1-fluoro-13-((1-(((R)-2-methylpyrrolidin-1-yl)methyl)cyclopropyl)methoxy)-5,6,6a,7,8,9, 10,11-octahydro-4-oxa-3,11a,12,14,15-pentaaza-7,10-methanocyclohepta [4,5]cycloocta [1,2,3-de]naphthalen-2-yl)-5-methyl-4-(trifluoromethyl)aniline], the figures for the IC50 in assay [1] and in assay [2] were 3 to 1000 nM and less than 0.3 nM, respectively.
As for `Cc1cc(N)cc(-c2nc3c4c(nc(OC[C@@H]5COC[C@H]5N(C)C)nc4c2F)N2C[C@H]4CC[C@H](N4)[C@H]2CCO3)c1C(F)(F)F` [Example 13, (3S,4S)-4-((((6aR,7S,10R)-2-(5-amino-3-methyl-2-(trifluoromethyl)phenyl)-1-fluoro-5,6,6a,7,8,9,10,11-octahydro-4-oxa-3,11a,12,14,15-pentaaza-7,10-methanocyclohepta[4,5]cycloocta [1,2,3-de]naphthalen-13-yl)oxy)methyl)-N,N-dimethyltetrahydrofuran-3-amine], the values for the IC50 in assay [1] and in assay [2] were 3 to 1000 nM and less than 0.3 nM, respectively.
Consider `Cc1cc(N)cc(-c2nc3c4c(nc(OCC5(CN6CCc7cnn(C)c7C6)CC5)nc4c2F)N2C[C@H]4CC[C@H](N4)[C@H]2CCO3)c1C(F)(F)F` [Example 193], for which the IC50 in assay [1] was 3 to 1000 nM; in assay [2], less than 0.3 nM.
For `Cc1cc(N)cc(-c2nc3c4c(nc(OCC5(CN6C[C@@H](C)O[C@@H](C)C6)CC5(F)F)nc4c2F)N2C[C@H]4CC[C@H](N4)[C@H]2CCO3)c1C(F)(F)F` (single isomer, unassigned) [Example 22], in that order: 3 to 1000 nM and less than 0.3 nM.
For `Cc1cc(N)cc(-c2nc3c4c(nc(OCC5(CN6C[C@H]7C[C@H]7[C@@H]6CO)CC5)nc4c2F)N2C[C@H]4CC[C@H](N4)[C@H]2CCO3)c1C(F)(F)F` [Example 96, ((1R,2R,5S)-3-((1-((((6aR,7S,10R)-2-(5-amino-3-methyl-2-(trifluoromethyl)phenyl)-1-fluoro-5,6,6a,7,8,9,10,11-octahydro-4-oxa-3,11a,12,14,15-pentaaza-7,10-methanocyclohepta [4,5]cycloocta[1,2,3-de]naphthalen-13-yl)oxy)methyl)cyclopropyl)methyl)-3-azabicyclo [3.1.0]hexan-2-yl) methanol], in that order: 3 to 1000 nM and less than 0.3 nM.
For `Cc1cc(N)cc(-c2nc3c4c(nc(OCC5(C)CN(C)CC/C5=C\F)nc4c2F)N2C[C@H]4CC[C@H](N4)[C@H]2CCO3)c1C(F)(F)F` (single isomer, unassigned) [Example 236], the IC50 was 3 to 1000 nM in assay [1] and less than 0.3 nM in assay [2].
On to `C=C1CN2C[C@H](F)C[C@]2(COc2nc3c4c(nc(-c5cc(N)cc(C)c5C(F)(F)F)c(F)c4n2)OCC[C@@H]2[C@@H]4CC[C@H](CN32)N4)C1` [Example 210, 3-((6aR,7S,10R)-1-fluoro-13-(((2R,7aS)-2-fluoro-6-methylenetetrahydro-1H-pyrrolizin-7a(5H)-yl)methoxy)-5,6,6a,7,8,9,10,11-octahydro-4-oxa-3,11a,12,14,15-pentaaza-7,10-methanocyclohepta[4,5]cycloocta[1,2,3-de]naphthalen-2-yl)-5-methyl-4-(trifluoromethyl)aniline], for which the IC50 in assay [1] is 3 to 1000 nM; in assay [2], less than 0.3 nM.
For `Cc1cc(N)cc(-c2nc3c4c(nc(OCC5(CN6CC[C@H](F)C6)CC5)nc4c2F)N2C[C@H]4CC[C@H](N4)[C@H]2CCO3)c1C(F)(F)F` [Example 157, 3-((6aR,7S,10R)-1-fluoro-13-((1-(((S)-3-fluoropyrrolidin-1-yl)methyl)cyclopropyl)methoxy)-5,6,6a,7,8,9,10,11-octahydro-4-oxa-3,11a,12,14,15-pentaaza-7,10-methanocyclohepta[4,5]cycloocta[1,2,3-de]naphthalen-2-yl)-5-methyl-4-(trifluoromethyl)aniline], in that order: 3 to 1000 nM and less than 0.3 nM.
For `[2H]C([2H])([2H])N1CC[C@H](OC)[C@H]1[C@H](C)Oc1nc2c3c(nc(-c4cc(N)cc(Cl)c4C(F)(F)F)c(F)c3n1)OCC[C@@H]1[C@@H]3CC[C@H](CN21)N3` [Example 218, 3-chloro-5-((6aR,7S,10R)-1-fluoro-13-((S)-1-((2R,3S)-3-methoxy-1-(methyl-d3)pyrrolidin-2-yl)ethoxy)-5,6,6a,7,8,9,10,11-octahydro-4-oxa-3,11a,12,14,15-pentaaza-7,10-methanocyclohepta[4,5]cycloocta[1,2,3-de]naphthalen-2-yl)-4-(trifluoromethyl)aniline], the IC50 is 0.3 to 3 nM in assay [1] and less than 0.3 nM in assay [2].
With `C[C@]1(COc2nc3c4c(nc(-c5cc(N)cc(Cl)c5C(F)(F)F)c(F)c4n2)OCC[C@@H]2[C@@H]4CC[C@H](CN32)N4)CCCN(C2CCOCC2)C1` [Example 196, 3-chloro-5-((6aR,7S,10R)-1-fluoro-13-(((S)-3-methyl-1-(tetrahydro-2H-pyran-4-yl)piperidin-3-yl)methoxy)-5,6,6a,7,8,9,10,11-octahydro-4-oxa-3,11a,12,14,15-pentaaza-7,10-methanocyclopenta[4,5]cycloocta[1,2,3-de]naphthalen-2-yl)-4-(trifluoromethyl)aniline], the IC50 in assay [1] is 0.3 to 3 nM; in assay [2], less than 0.3 nM.
The matching figures for `C=C1CN2C[C@H](F)C[C@]2(COc2nc3c4c(nc(-c5cc(N)cc(Cl)c5C(F)(F)F)c(F)c4n2)OCC[C@@H]2[C@@H]4CC[C@H](CN32)N4)C1` [Example 211, 3-chloro-5-((6aR,7aS,10R)-1-fluoro-13-(((2R,7aS)-2-fluoro-6-methylenetetrahydro-1H-pyrrolizin-7a(5H)-yl)methoxy)-5,6,6a,7,8,9,10,11-octahydro-4-oxa-3,11a,12,14,15-pentaaza-7,10-methanocyclohepta[4,5]cycloocta[1,2,3-de]naphthalen-2-yl)-4-(trifluoromethyl)aniline]: 3 to 1000 nM and less than 0.3 nM.
Take `Cc1cc(N)cc(-c2nc3c4c(nc(OCC5(C)CN(C)CCC5C(F)F)nc4c2F)N2C[C@H]4CC[C@H](N4)[C@H]2CCO3)c1C(F)(F)F` (single isomer, unassigned) [Example 244]: the results for the IC50 in assay [1] and in assay [2] were 3 to 1000 nM and 0.3 to 3 nM, respectively.
For `Cc1cc(N)cc(-c2nc3c4c(nc(N5CC(N(C)C)C5)nc4c2F)N2C[C@H]4CC[C@H](N4)[C@H]2CCO3)c1C(F)(F)F` [Example 32, 1-((6aR,7S,10R)-2-(5-amino-3-methyl-2-(trifluoromethyl)phenyl)-1-fluoro-5,6,6a,7,8,9,10,11-octahydro-4-oxa-3,11a,12,14,15-pentaaza-7,10-methanocyclohepta[4,5]cycloocta [1,2,3-de]naphthalen-13-yl)-N,N-dimethylazetidin-3-amine], in that order: 3 to 1000 nM and 0.3 to 3 nM.
`CCN1CC(F)CC(C)(COc2nc3c4c(nc(-c5cc(N)cc(C)c5C(F)(F)F)c(F)c4n2)OCC[C@@H]2[C@@H]4CC[C@H](CN32)N4)C1` (stereo partly drawn) [Example 202, 3-((6aR,7S,10R)-13-((1-ethyl-5-fluoro-3-methylpiperidin-3-yl)methoxy)-1-fluoro-5,6,6a,7,8,9,10,11-octahydro-4-oxa-3,11a,12,14,15-pentaaza-7,10-methanocyclohepta[4,5]cycloocta[1,2,3-de]naphthalen-2-yl)-5-methyl-4-(trifluoromethyl)aniline]: the IC50 in assay [1] is 3 to 1000 nM; in assay [2], less than 0.3 nM.
For `Cc1cc(N)cc(-c2nc3c4c(nc(OCC5(CN6C[C@@H]7[C@@H](CF)[C@@H]7C6)CC5)nc4c2F)N2C[C@H]4CC[C@H](N4)[C@H]2CCO3)c1C(F)(F)F` [Example 170, 3-((6aR,7S,10R)-1-fluoro-13-((1-(((1R,5S,6R)-6-(fluoromethyl)-3-azabicyclo[3.1.0]hexan-3-yl)methyl)cyclopropyl)methoxy)-5,6,6a,7,8,9,10,11-octahydro-4-oxa-3,11a,12,14,15-pentaaza-7,10-methanocyclohepta[4,5]cycloocta[1,2,3-de]naphthalen-2-yl)-5-methyl-4-(trifluoromethyl)aniline], in that order: 3 to 1000 nM and less than 0.3 nM.
